Drawing on patent publication US9278915B2, “Agonists of GPR40” (CONNEXIOS LIFE SCIENCES PVT LTD, priority 2010, dated 2016), this text covers EC50 for 13 molecules.

A value given as a limit tells only on which side of the number the result lay.

T1 sequence (O14842 whole entry): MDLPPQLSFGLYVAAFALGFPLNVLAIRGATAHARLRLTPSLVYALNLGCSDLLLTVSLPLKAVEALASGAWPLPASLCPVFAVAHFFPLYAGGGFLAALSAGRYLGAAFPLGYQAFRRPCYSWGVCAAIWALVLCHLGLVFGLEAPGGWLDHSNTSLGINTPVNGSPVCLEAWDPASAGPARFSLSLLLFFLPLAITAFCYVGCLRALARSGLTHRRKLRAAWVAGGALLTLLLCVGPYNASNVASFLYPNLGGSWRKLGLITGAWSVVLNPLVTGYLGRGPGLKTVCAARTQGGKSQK

This assay has as its target T1, hGPR40 (Homo sapiens, UniProt O14842).
T1 construct: expressed in transfected cells
The assay can be described thus: Calcium flux assay to detect GPR40 activation. The assay is classed as cell-based. The note with it: CHO-K cells stably expressing hGPR40; Fluo-4 NW; read for 4 min at 5 s intervals. In a few lines: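 CHO-K cells stably expressing hGPR40 were cultured 24 h at 37 °C and loaded with Fluo-4 NW for 30 min at 37 °C plus 30 min at RT. Compounds diluted in HEPES buffer were added, and calcium fluorescence was recorded for 4 min at 5 s intervals.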
(In general: Calcium assays in cells follow changes in intracellular calcium, usually with a dye or a luminescent sensor.)
Usually EC50 stands for the midpoint of the concentration-response curve. Regarding `CO/N=C(\COc1ccc(COc2ccc(C(C#N)CC(=O)O)cc2)cc1)c1ccccc1` (single isomer, unassigned; (-)) [Compound 82, (−)-Sodium 3-cyano-3-{4-[(4-{[(2E,2Z)-2-(methoxyimino)-2-phenylethyl]oxy}benzyl)oxy]phenyl}propanoate], the EC50 is less than 10 nM.

Consider `CO/N=C(\COc1ccc(COc2ccc(C(CC(=O)O)c3c(C)noc3C)cc2)cc1)c1ccccc1` (stereo not shown) [Compound 67, 3-(3,5-Dimethyl-1,2-oxazol-4-yl)-3-{4-[(4-{[(2E,2Z)-2-(methoxyimino)-2-phenylethyl]oxy}benzyl)oxy]phenyl}propanoic acid], for which the concentration giving a half-maximal response (EC50) is more than 100 nM. With `CO/N=C(\COc1ccc(COc2ccc(CCC(=O)O)c(OCC3CC3)c2)cc1)c1ccccc1` [Compound 58, 3-{2-(Cyclopropylmethoxy)-4-[(4-{[(2Z)-2-(methoxyimino)-2-phenylethyl]oxy}benzyl)oxy]phenyl}propanoic acid] the figure was more than 100 nM; with `CO/N=C(\COc1ccc(COc2ccc(C(C#N)CC(=O)O)cc2)cc1)c1ccc2c(c1)CCC2` (stereo not shown) [Compound 103, 3-Cyano-3-{4-[(4-{[(2Z)-2-(2,3-dihydro-1H-inden-5-yl)-2-(methoxyimino)ethyl]oxy}benzyl)oxy]phenyl}propanoic acid], 10 to 100 nM. As for `CO/N=C(\COc1ccc(COc2ccc(/C(C#N)=C/C(=O)O)cc2)cc1)c1ccccc1` [Compound 76, (2Z)-3-Cyano-3-{4-[(4-{[(2Z)-2-(methoxyimino)-2-phenylethyl]oxy}benzyl)oxy]phenyl}prop-2-enoic acid], the EC50 fell in the range of 10 to 100 nM. Regarding `CCOC(=O)CCc1ccc(OCc2ccc(OC/C(=N\OC)c3ccccc3)cc2)cc1OCC(=O)O` [Compound 90, {2-(3-Ethoxy-3-oxopropyl)-5-[(4-{[(2E,2Z)-2-(methoxyimino)-2-phenylethyl]oxy}benzyl)oxy]phenoxy}acetic acid], the EC50 is more than 100 nM. On to `CO/N=C(\COc1ccc(COc2ccc(/C=C/C(=O)O)c(OC)c2)cc1)c1ccccc1` [Compound 95, (2E,2Z)-3-{2-Methoxy-4-[(4-{[(2Z)-2-(methoxyimino)-2-phenylethyl]oxy}benzyl)oxy]phenyl}prop-2-enoic acid], for which the EC50 was more than 100 nM. On to `CO/N=C(/COc1ccc(COc2ccc(C(C#N)CC(=O)O)cc2)cc1)c1ccccc1` (single isomer, unassigned) [Compound 99, 3-Cyano-3-{4-[(4-{[(2E)-2-(methoxyimino)-2-phenylethyl]oxy}benzyl)oxy]phenyl}propanoic acid], for which the EC50 fell in the range of 10 to 100 nM. With `CO/N=C(\COc1ccc(COc2ccc(C(O)CC(=O)O)cc2)cc1)c1ccccc1` (stereo not shown) [Compound 119, 3-Hydroxy-3-{4-[(4-{[(2Z)-2-(methoxyimino)-2-phenylethyl]oxy}benzyl)oxy]phenyl}propanoic acid] the figure was more than 100 nM; with `CO/N=C(\COc1ccc(COc2ccc(CCC(=O)O)c(-c3cc(C)on3)c2)cc1)c1ccccc1` [Compound 65, 3-{4-[(4-{[(2Z)-2-(Methoxyimino)-2-phenylethyl]oxy}benzyl)oxy]-2-(5-methyl-1,2-oxazol-3-yl)phenyl}propanoic acid], more than 100 nM; with `CO/N=C(\COc1ccc(COc2ccc(C3CC3C(=O)O)cc2)cc1)c1ccc(OC)cc1` (stereo not shown) [Compound 57, Sodium 2-{4-[(4-{[(2Z)-2-(methoxyimino)-2-(4-methoxyphenyl)ethyl]oxy}benzyl)oxy]phenyl}cyclopropanecarboxylate], 10 to 100 nM. As for `CO/N=C(\COc1ccc(COc2ccc(CCC(=O)O)cc2)cc1)c1ccc(S(C)(=O)=O)cc1` [Compound 92, 3-(4-{[4-({(2Z)-2-(Methoxyimino)-2-[4-(methylsulfonyl)phenyl]ethyl}oxy)benzyl]oxy}phenyl)propanoic acid], the figure is more than 100 nM; as for `CO/N=C(\COc1ccc(COc2ccc(CCC(=O)O)cc2)cc1)c1ccccc1` [Compound 7, 3-{4-[(4-{[(2Z)-2-(Methoxyimino)-2-phenylethyl]oxy}benzyl)oxy]phenyl}propanoic acid], less than 10 nM.
